Assays:
Type in all cases: in vivo
cocklebur = assay: Herbicidal activity test against upland field weeds (foliar treatment test); details: Xanthium strumarium, 50 g ai/ha, scale 0-100
Procedure: (§1) Experimental Example 1: Herbicidal Activity Test Against Upland Field Weeds (Foliar Treatment Test) Foliar treatment was performed as follows: After filling a square plastic pot having a surface area of 350 cm^2 with horticultural soil, seeds (10˜15 grains) or rootstocks (2 pieces) of 5 kinds of grassy weeds of sorghum, barnyard grass, quack grass, crabgrass, fall panicum, and 5 kinds of broadleaf weeds of black nightshade, indian jointvetch, velvetleaf, cocklebur, bindweed, which had been stored in a low temperature (6° C.), were sown. After growing for a certain period in greenhouse conditions (average temperature 30±5° C., light/dark=14/10 hours), test compound solutions were made by diluting with a preparation solution (including 50% acetone, 0.1% Tween-20) so that the final treatment amount of the test compounds was 50 or 75 g a.i./ha. The prepared test compound solution was used for treating foliage by hand-spraying 14 mL per pot in a fume hood. After the treatment, it was managed under the same greenhouse conditions as above, and after 14 days (after 21 days if necessary), the external symptoms and efficacy were investigated according to the scale of 0 (no control) to 100 (complete control). The results of Table 7 were obtained by evaluating weed control value to the untreated control by conducting visual assessment.

indian jointvetch = assay: as above; details: 50 g ai/ha, scale 0-100
Procedure: as §1

black nightshade = assay: as above; design: key to Foliar treatment herbicidal activity, black nightshade: 0 (no control); 100 (complete control); details: 50 g ai/ha, scale 0-100; for pest or weed control at 50 g/ha: Solanum nigrum
Procedure: as §1

corn = assay: Phytotoxicity test for upland field crops (foliar treatment test); design: key: 0 (no harm); 9 (complete withered)
Procedure: (§2) Experimental Example 3: Phytotoxicity Test for Upland Field Crops (Foliar Treatment Test)
(§3) Foliar treatment was performed for grown crops and weeds in a square plastic pot having a surface area of 50 cm^2 filled with horticultural soil. As a fertilizer per pot, 0.5 g of horticultural mixed fertilizer (N:P:K=17:21:17) was treated by mixing in the upper soil. Five kinds of crops such as rice, wheat, corn, soybean, and cotton were sown in each pot, and after growing for a certain period in greenhouse conditions (average temperature 30±5° C., light/dark=14/10 hours), test compound solutions were made by diluting with the diluent (33% acetone, 0.1% Tween-20) so that the final treatment amount of the test compounds was 19˜300 g a.i./ha. The prepared test compound solutions were treated using a spray booth (SB6-016) at a treatment amount of 100 ml per 1 m^2 of treatment area. The treated plants were managed under the same greenhouse conditions as above, and external symptoms and phytotoxicity were investigated 7 and 14 days after treatment (after 21 days if necessary). In the evaluation of the phytotoxicity for the crop, the grade of 0 (no harm) to 9 (complete withered) was used. The results of Table 9 were obtained by evaluating crop phytotoxicity value to the untreated control.

wheat = assay: as above; design: key: 0 (no harm); 9 (complete withered)
Procedure: as §2, §3

sorghum = assay: Herbicidal activity test against upland field weeds (foliar treatment test); design: key to Foliar treatment herbicidal activity, Sorghum: 0 (no control); 100 (complete control); details: 50 g ai/ha, scale 0-100; for plant injury at 50 g/ha: Sorghum
Procedure: as §1

barnyard grass = assay: as above; design: key to Foliar treatment herbicidal activity, barnyard grass: 0 (no control); 100 (complete control); details: 50 g ai/ha, scale 0-100; for pest or weed control at 50 g/ha: Echinochloa crus-galli
Procedure: as §1

bindweed = assay: as above; details: 50 g ai/ha, scale 0-100
Procedure: as §1

fall panicum = assay: as above; design: key to Foliar treatment herbicidal activity, Fall panicum: 0 (no control); 100 (complete control); details: 50 g ai/ha, scale 0-100; for pest or weed control at 50 g/ha: Panicum dichotomiflorum
Procedure: as §1

velvetleaf = assay: as above; details: Abutilon theophrasti, 50 g ai/ha, scale 0-100, read-out: Foliar treatment herbicidal activity, velvet leaf
Procedure: as §1

crabgrass = assay: as above; design: key to Foliar treatment herbicidal activity, Crabgrass: 0 (no control); 100 (complete control); details: 50 g ai/ha, scale 0-100; for pest or weed control at 50 g/ha: Digitaria sanguinalis
Procedure: as §1

quack grass = assay: as above; design: key to Foliar treatment herbicidal activity, quack grass: 0 (no control); 100 (complete control); details: 50 g ai/ha, scale 0-100
Procedure: as §1

[1] = 50 g ai/ha, Corn (7 days after treatment)
[2] = 50 g ai/ha, Corn (14 days after treatment)
[3] = 100 g ai/ha, Corn (7 days after treatment)
[4] = 100 g ai/ha, Corn (14 days after treatment)
[5] = 50 g ai/ha, Wheat (7 days after treatment)
[6] = 50 g ai/ha, Wheat (14 days after treatment)
[7] = 100 g ai/ha, Wheat (7 days after treatment)
[8] = 100 g ai/ha, Wheat (14 days after treatment)

CCn1nnc(COCc2nc(C(F)(F)F)ccc2C(=O)Nc2nnnn2C)n1 [Compound No. 2-87, 2-(((2-ethyl-2H-tetrazol-5-yl)methoxy)methyl)-N-(1-methyl-1H-tetrazol-5-yl)-6-(trifluoromethyl)nicotinamide]
pest or weed control at 50 g/ha (cocklebur): 60%
pest or weed control at 50 g/ha (indian jointvetch): 20%
pest or weed control at 50 g/ha (black nightshade): 98%
Foliar treatment phytotoxicity, Corn (corn; [1]): 0
Foliar treatment phytotoxicity, Corn (corn; [2]): 0
Foliar treatment phytotoxicity, Corn (corn; [3]): 0
Foliar treatment phytotoxicity, Corn (corn; [4]): 0
Foliar treatment phytotoxicity, Wheat (wheat; [5]): 0
Foliar treatment phytotoxicity, Wheat (wheat; [6]): 0
Foliar treatment phytotoxicity, Wheat (wheat; [7]): 0
Foliar treatment phytotoxicity, Wheat (wheat; [8]): 0
Foliar treatment herbicidal activity, Sorghum (sorghum): 0
pest or weed control at 50 g/ha (barnyard grass): 10%
pest or weed control at 50 g/ha (bindweed): 80%
pest or weed control at 50 g/ha (fall panicum): 40%
pest or weed control at 50 g/ha (velvetleaf): 70%
Foliar treatment herbicidal activity, Crabgrass (crabgrass): 0
Foliar treatment herbicidal activity, quack grass (quack grass): 0

CCn1nnc(COCc2nc(C(F)(F)F)ccc2C(=O)Nc2nnnn2CC)n1 [Compound No. 2-88, N-(1-ethyl-1H-tetrazol-5-yl)-2-(((2-ethyl-2H-tetrazol-5-yl)methoxy)methyl)-6-(trifluoromethyl)nicotinamide]
pest or weed control at 50 g/ha (cocklebur): 70%
pest or weed control at 50 g/ha (indian jointvetch): 60%
Foliar treatment herbicidal activity, black nightshade (black nightshade): 100
Foliar treatment phytotoxicity, Corn (corn; [1]): 0
Foliar treatment phytotoxicity, Corn (corn; [2]): 0
Foliar treatment phytotoxicity, Corn (corn; [3]): 0
Foliar treatment phytotoxicity, Corn (corn; [4]): 0
Foliar treatment phytotoxicity, Wheat (wheat; [5]): 0
Foliar treatment phytotoxicity, Wheat (wheat; [6]): 0
Foliar treatment phytotoxicity, Wheat (wheat; [7]): 0
Foliar treatment phytotoxicity, Wheat (wheat; [8]): 0
Foliar treatment herbicidal activity, Sorghum (sorghum): 0
Foliar treatment herbicidal activity, barnyard grass (barnyard grass): 0
pest or weed control at 50 g/ha (bindweed): 70%
pest or weed control at 50 g/ha (fall panicum): 40%
pest or weed control at 50 g/ha (velvetleaf): 70%
pest or weed control at 50 g/ha (crabgrass): 20%
Foliar treatment herbicidal activity, quack grass (quack grass): 0

CCCn1nnnc1NC(=O)c1ccc(C(F)(F)F)nc1COCc1nnn(CC)n1 [Compound No. 2-89, 2-(((2-ethyl-2H-tetrazol-5-yl)methoxy)methyl)-N-(1-propyl-1H-tetrazol-5-yl)-6-(trifluoromethyl)nicotinamide]
pest or weed control at 50 g/ha (cocklebur): 90%
pest or weed control at 50 g/ha (indian jointvetch): 40%
Foliar treatment herbicidal activity, black nightshade (black nightshade): 100
Foliar treatment phytotoxicity, Corn (corn; [1]): 0
Foliar treatment phytotoxicity, Corn (corn; [2]): 0
Foliar treatment phytotoxicity, Corn (corn; [3]): 0
Foliar treatment phytotoxicity, Corn (corn; [4]): 0
Foliar treatment phytotoxicity, Wheat (wheat; [5]): 0
Foliar treatment phytotoxicity, Wheat (wheat; [6]): 0
Foliar treatment phytotoxicity, Wheat (wheat; [7]): 0
Foliar treatment phytotoxicity, Wheat (wheat; [8]): 0
plant injury at 50 g/ha (sorghum): 50%
pest or weed control at 50 g/ha (barnyard grass): 95%
pest or weed control at 50 g/ha (bindweed): 70%
pest or weed control at 50 g/ha (fall panicum): 90%
pest or weed control at 50 g/ha (velvetleaf): 50%
pest or weed control at 50 g/ha (crabgrass): 60%
Foliar treatment herbicidal activity, quack grass (quack grass): 0

Cn1nnnc1NC(=O)c1ccc(C(F)(F)F)nc1COCc1nnn(C(F)F)n1 [Compound No. 2-92, 2-(((2-(difluoromethyl)-2H-tetrazol-5-yl)methoxy)methyl)-N-(1-methyl-1H-tetrazol-5-yl)-6-(trifluoromethyl)nicotinamide]
pest or weed control at 50 g/ha (cocklebur): 70%
pest or weed control at 50 g/ha (indian jointvetch): 70%
Foliar treatment herbicidal activity, black nightshade (black nightshade): 100
Foliar treatment herbicidal activity, Sorghum (sorghum): 0
Foliar treatment herbicidal activity, barnyard grass (barnyard grass): 0
pest or weed control at 50 g/ha (bindweed): 70%
pest or weed control at 50 g/ha (fall panicum): 40%
pest or weed control at 50 g/ha (velvetleaf): 80%
pest or weed control at 50 g/ha (crabgrass): 20%
Foliar treatment herbicidal activity, quack grass (quack grass): 0

CN(Cc1nnn(C)n1)Cc1nc(C(F)(F)F)ccc1C(=O)Nc1nnnn1C [Compound No. 2-93, 2-((methyl((2-methyl-2H-tetrazol-5-yl)methyl)amino)methyl)-N-(1-methyl-1H-tetrazol-5-yl)-6-(trifluoromethyl)nicotinamide]
pest or weed control at 50 g/ha (cocklebur): 95%
pest or weed control at 50 g/ha (indian jointvetch): 70%
Foliar treatment herbicidal activity, black nightshade (black nightshade): 100
plant injury at 50 g/ha (sorghum): 20%
pest or weed control at 50 g/ha (barnyard grass): 20%
pest or weed control at 50 g/ha (bindweed): 50%
pest or weed control at 50 g/ha (fall panicum): 30%
pest or weed control at 50 g/ha (velvetleaf): 80%
pest or weed control at 50 g/ha (crabgrass): 40%
Foliar treatment herbicidal activity, quack grass (quack grass): 0

CCN(Cc1nnn(C)n1)Cc1nc(C(F)(F)F)ccc1C(=O)Nc1nnnn1C [Compound No. 2-94, 2-((ethyl((2-methyl-2H-tetrazol-5-yl)methyl)amino)methyl)-N-(1-methyl-1H-tetrazol-5-yl)-6-(trifluoromethyl)nicotinamide]
pest or weed control at 50 g/ha (cocklebur): 60%
pest or weed control at 50 g/ha (indian jointvetch): 60%
Foliar treatment herbicidal activity, black nightshade (black nightshade): 100
Foliar treatment herbicidal activity, Sorghum (sorghum): 0
Foliar treatment herbicidal activity, barnyard grass (barnyard grass): 0
pest or weed control at 50 g/ha (bindweed): 30%
Foliar treatment herbicidal activity, Fall panicum (fall panicum): 0
pest or weed control at 50 g/ha (velvetleaf): 60%
Foliar treatment herbicidal activity, Crabgrass (crabgrass): 0
Foliar treatment herbicidal activity, quack grass (quack grass): 0

Cn1nnnc1NC(=O)c1ccc(C(F)(F)F)nc1COCc1nc(OCC(F)(F)F)n(C)n1 [Compound No. 2-130, N-(1-methyl-1H-tetrazol-5-yl)-2-(((1-methyl-5-(2,2,2-trifluoroethoxy)-1H-1,2,4-triazol-3-yl)methoxy)methyl)-6-(trifluoromethyl)nicotinamide]
pest or weed control at 50 g/ha (cocklebur): 60%
pest or weed control at 50 g/ha (indian jointvetch): 60%
pest or weed control at 50 g/ha (black nightshade): 98%
plant injury at 50 g/ha (sorghum): 30%
pest or weed control at 50 g/ha (barnyard grass): 95%
pest or weed control at 50 g/ha (bindweed): 70%
pest or weed control at 50 g/ha (fall panicum): 70%
pest or weed control at 50 g/ha (velvetleaf): 50%
pest or weed control at 50 g/ha (crabgrass): 90%
Foliar treatment herbicidal activity, quack grass (quack grass): 0

CN(C)c1nc(COCc2nc(C(F)(F)F)ccc2C(=O)Nc2nnnn2C)nn1C [Compound No. 2-133, 2-(((5-(dimethylamino)-1-methyl-1H-1,2,4-triazol-3-yl)methoxy)methyl)-N-(1-methyl-1H-tetrazol-5-yl)-6-(trifluoromethyl)nicotinamide]
pest or weed control at 50 g/ha (cocklebur): 95%
pest or weed control at 50 g/ha (indian jointvetch): 95%
Foliar treatment herbicidal activity, black nightshade (black nightshade): 100
plant injury at 50 g/ha (sorghum): 20%
pest or weed control at 50 g/ha (barnyard grass): 90%
pest or weed control at 50 g/ha (bindweed): 90%
pest or weed control at 50 g/ha (fall panicum): 80%
pest or weed control at 50 g/ha (velvetleaf): 80%
pest or weed control at 50 g/ha (crabgrass): 98%
Foliar treatment herbicidal activity, quack grass (quack grass): 0

— patent publication US12495798B2, “Nicotinamide compound and herbicidal composition comprising compound” (KOREA RESEARCH INSTITUTE OF CHEMICAL TECHNOLOGY, priority 2019, dated 2025)
